# Test results reported in publication PMC6689975, “Novel Cell Wall Antifungals Reveal a Special Synergistic Activity in pbr1 Mutants Resistant to the Glucan Synthesis Antifungals Papulacandins and Echinocandins” (Frontiers in Microbiology, 2019).
# Read-outs that look alike come from different tables or passages of the source.
# Legend:
# Experiment in all cases: microbe, parasite or virus in culture
# Conditions in all cases: 48 h, read-out: MIC
# [1] = system: T1, Schizosaccharomyces pombe S. p.^a (wild-type 972 h-); design: species or system yeast; tube dilution MIC in YEPD (± 1.2 M sorbitol), complete growth inhibition by turbidity
# T1 construct: 972 h-
# Protocol: (§1) Standard YEPD (Yeast Extract, Peptone, Dextrose) ([Sherman, 1990]), YEPD+S (YEPD with 1.2M sorbitol), YES (Yeast Extract, Dextrose and Supplements of Adenine, Histidine, Leucine, Uracil and Lysine) ([Alfa et al., 1993]) and YES+S (YES with 1.2 M sorbitol) ([Ribas et al., 1991]; [Ishiguro et al., 1997]), media were used for determination of MIC values of the tested compounds. A stock solution of 10 mg/ml of each tested compounds was prepared in DMSO and serial dilutions in DMSO were prepared. The final concentration of DMSO was 2% in the YEPD medium. […] The serial dilutions of compounds were dispensed into test tubes with 1 ml of YEPD or YEPD+S to make final concentrations of 200, 100, 50, 25, 12.5, 6.26, 3.125, 1.6, 0.8 and 0.4 μg/ml. The tested yeast strains were previously grown in YEPD, YEPD+S, YES or YES+S agar plates at 30°C for 48 h. For inoculation of YEPD or YEPD+S macro test tubes a suspension of tested fungus was produced with 10^5 cfu/ml (cfu - colony forming unit). 10 μl of suspension was used for inoculation of each tube. After 48 h incubation at 30°C the tubes were checked. The MIC value is the lowest concentration of the tested compound that could inhibit the fungal growth and the medium remained clear. From each tube 10 μl culture was plated on YEPD agar medium to check the contamination. The MIC tests were carried out in three parallels. Micro-culture assays of large numbers of samples were analyzed as described) ([Martins et al., 2011]). Essentially early log-phase cells were grown in YEPD, YEPD+S, YES or YES+S (1.2 M sorbitol) medium at 30°C, and diluted to cell density of 4 X 10^6 cells/ml in YEPD, YEPD+S, YES or YES+S medium and aliquots of 100 μl were dispensed into each small test tube (3 ml test tube size). Then, another 100 μl of YEPD, YEPD+S, YES or YES+S with the corresponding dilution of each compound at 2X concentration (4% DMSO) was added. The final volume was 200 μl, with the cells diluted to of 2 X 10^6 cells/ml and each compound diluted to 1X final concentration, containing increasing concentrations of antifungal (0, 1, 2, 5, 10, 20, 50, 100 and 200 μg/ml) or an equivalent volume of solvent (2% DMSO). The cells were grown at 30°C in an orbital roller and turbidity was analyzed after 24 and 48 h of incubation. The MIC was determined as the minimal concentration of tested compound that produced complete cell growth inhibition and kept the medium clear. The MIC values were calculated from at least three independent experiments.
# [2] = system: Candida albicans C. a.^g (Table 4); design: species or system yeast; tube dilution MIC in YEPD (± 1.2 M sorbitol), complete growth inhibition by turbidity
# Protocol: as §1
# [3] = system: Candida albicans C. a.^f (Table 4); design: species or system yeast; tube dilution MIC in YEPD (± 1.2 M sorbitol), complete growth inhibition by turbidity
# Protocol: as §1
# [4] = system: Candida albicans C. a.^h (Table 4); design: species or system yeast; tube dilution MIC in YEPD (± 1.2 M sorbitol), complete growth inhibition by turbidity
# Protocol: as §1
# [5] = system: T2, Saccharomyces cerevisiae S. c.^d (wild-type CVX12-3A); design: species or system yeast; tube dilution MIC in YEPD (± 1.2 M sorbitol), complete growth inhibition by turbidity
# T2 construct: CVX12-3A
# Protocol: as §1
# [6] = system: T1, Schizosaccharomyces pombe S. p.^a (wild-type 972 h-); design: species or system yeast; micro tube dilution MIC in YES (± 1.2 M sorbitol), complete growth inhibition by turbidity
# Protocol: as §1, with “h.” for “h. For inoculation of YEPD or YEPD+S macro test tubes a suspension of tested fungus was produced with 10^5 cfu/ml (cfu - colony forming unit). 10 μl of suspension was used for inoculation of each tube. After 48 h incubation at 30°C the tubes were checked. The MIC value is the lowest concentration of the tested compound that could inhibit the fungal growth and the medium remained clear. From each tube 10 μl culture was plated on YEPD agar medium to check the contamination. The MIC tests were carried out in three parallels.”
# [7] = system: Candida albicans C. a.^g (Table 6); design: species or system yeast; micro tube dilution MIC in YES (± 1.2 M sorbitol), complete growth inhibition by turbidity
# Protocol: as §1, with “h.” for “h. For inoculation of YEPD or YEPD+S macro test tubes a suspension of tested fungus was produced with 10^5 cfu/ml (cfu - colony forming unit). 10 μl of suspension was used for inoculation of each tube. After 48 h incubation at 30°C the tubes were checked. The MIC value is the lowest concentration of the tested compound that could inhibit the fungal growth and the medium remained clear. From each tube 10 μl culture was plated on YEPD agar medium to check the contamination. The MIC tests were carried out in three parallels.”
# [8] = system: Candida albicans C. a.^f (Tables 5, 6); design: species or system yeast; micro tube dilution MIC in YES (± 1.2 M sorbitol), complete growth inhibition by turbidity
# Protocol: as §1, with “h.” for “h. For inoculation of YEPD or YEPD+S macro test tubes a suspension of tested fungus was produced with 10^5 cfu/ml (cfu - colony forming unit). 10 μl of suspension was used for inoculation of each tube. After 48 h incubation at 30°C the tubes were checked. The MIC value is the lowest concentration of the tested compound that could inhibit the fungal growth and the medium remained clear. From each tube 10 μl culture was plated on YEPD agar medium to check the contamination. The MIC tests were carried out in three parallels.”
# [9] = system: T2, Saccharomyces cerevisiae S. c.^d (wild-type CVX12-3A); design: species or system yeast; micro tube dilution MIC in YES (± 1.2 M sorbitol), complete growth inhibition by turbidity
# Protocol: as §1, with “h.” for “h. For inoculation of YEPD or YEPD+S macro test tubes a suspension of tested fungus was produced with 10^5 cfu/ml (cfu - colony forming unit). 10 μl of suspension was used for inoculation of each tube. After 48 h incubation at 30°C the tubes were checked. The MIC value is the lowest concentration of the tested compound that could inhibit the fungal growth and the medium remained clear. From each tube 10 μl culture was plated on YEPD agar medium to check the contamination. The MIC tests were carried out in three parallels.”
compound,measurement,setting,value
C[C@@H]1[C@H](O)[C@@H](C)/C=C/C=C/C=C/C=C/C=C/C=C/C=C/[C@H](O[C@@H]2O[C@H](C)[C@@H](O)[C@H](N)[C@@H]2O)C[C@@H]2O[C@](O)(C[C@@H](O)C[C@@H](O)[C@H](O)CC[C@@H](O)C[C@@H](O)CC(=O)O[C@H]1C)C[C@H](O)[C@H]2C(=O)O [amphotericin B],MIC,[1],< 0.1 µg/mL
same,MIC,[2],0.8 µg/mL
same,MIC,[3],0.4 µg/mL
same,MIC,[4],0.4 µg/mL
same,MIC,[5],0.2 µg/mL
same,MIC,[6],< 0.1 µg/mL
same,MIC,[7],0.4 µg/mL
same,MIC,[8],0.8 µg/mL
same,MIC,[9],0.2 µg/mL
